From US10604524B2, “Pyrropyrimidine compounds as MNKs inhibitors” (LIFEARC, priority 2015, dated 2020)

Tests used:
Assay in all cases: Kinase selectivity screen
[1] = molecular target: RPS6KA1 (Homo sapiens, UniProt Q15418); details: read-out: % Inhibition RPS6KA1
[2] = molecular target: NUAK1 (Homo sapiens, UniProt O60285); details: read-out: % Inhibition NUAK1
[3] = molecular target: EPHB1 (Homo sapiens, UniProt P54762); details: read-out: % Inhibition EPHB1
[4] = molecular target: SGK1 (Homo sapiens, UniProt O00141); details: read-out: % Inhibition SGK1
[5] = molecular target: AKT2 (Homo sapiens, UniProt P31751); details: read-out: % Inhibition AKT2
[6] = molecular target: GSK3B (Homo sapiens, UniProt P49841); details: read-out: % Inhibition GSK3B
[7] = molecular target: ROCK1 (Homo sapiens, UniProt Q13464); details: read-out: % Inhibition ROCK1
[8] = molecular target: MYLK (Homo sapiens, UniProt Q15746); details: read-out: % Inhibition MYLK
[9] = molecular target: INSRR (Homo sapiens, UniProt P14616); details: read-out: % Inhibition INSRR
[10] = molecular target: CDK9/CCNT1 (Homo sapiens, UniProt P50750); details: read-out: % Inhibition CDK9/CCNT1
[11] = molecular target: CDK7/CCNH/MNAT1 (Homo sapiens, UniProt P50613); details: read-out: % Inhibition CDK7/CCNH/MNAT1
[12] = molecular target: IGF1R (Homo sapiens, UniProt P08069); details: read-out: % Inhibition IGF1R
[13] = molecular target: AKT1 (Homo sapiens, UniProt P31749); details: read-out: % Inhibition AKT1
[14] = molecular target: DDR2 (Homo sapiens, UniProt Q16832); details: read-out: % Inhibition DDR2
[15] = molecular target: CDK1/CCNB1 (Homo sapiens, UniProt P06493); details: read-out: % Inhibition CDK1/CCNB1
[16] = molecular target: AURKB (Homo sapiens, UniProt Q96GD4); details: read-out: % Inhibition AURKB
AURKB, sequence (Q96GD4 whole entry, species assumed): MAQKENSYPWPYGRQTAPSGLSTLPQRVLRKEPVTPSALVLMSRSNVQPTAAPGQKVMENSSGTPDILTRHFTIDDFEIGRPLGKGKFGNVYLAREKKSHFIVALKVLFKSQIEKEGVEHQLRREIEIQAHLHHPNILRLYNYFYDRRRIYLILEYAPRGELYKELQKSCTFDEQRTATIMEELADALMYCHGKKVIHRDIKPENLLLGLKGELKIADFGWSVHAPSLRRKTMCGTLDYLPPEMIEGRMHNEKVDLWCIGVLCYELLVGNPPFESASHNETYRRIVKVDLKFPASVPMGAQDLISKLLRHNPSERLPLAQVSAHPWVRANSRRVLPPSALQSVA

ROCK1, sequence (Q13464 whole entry, species assumed): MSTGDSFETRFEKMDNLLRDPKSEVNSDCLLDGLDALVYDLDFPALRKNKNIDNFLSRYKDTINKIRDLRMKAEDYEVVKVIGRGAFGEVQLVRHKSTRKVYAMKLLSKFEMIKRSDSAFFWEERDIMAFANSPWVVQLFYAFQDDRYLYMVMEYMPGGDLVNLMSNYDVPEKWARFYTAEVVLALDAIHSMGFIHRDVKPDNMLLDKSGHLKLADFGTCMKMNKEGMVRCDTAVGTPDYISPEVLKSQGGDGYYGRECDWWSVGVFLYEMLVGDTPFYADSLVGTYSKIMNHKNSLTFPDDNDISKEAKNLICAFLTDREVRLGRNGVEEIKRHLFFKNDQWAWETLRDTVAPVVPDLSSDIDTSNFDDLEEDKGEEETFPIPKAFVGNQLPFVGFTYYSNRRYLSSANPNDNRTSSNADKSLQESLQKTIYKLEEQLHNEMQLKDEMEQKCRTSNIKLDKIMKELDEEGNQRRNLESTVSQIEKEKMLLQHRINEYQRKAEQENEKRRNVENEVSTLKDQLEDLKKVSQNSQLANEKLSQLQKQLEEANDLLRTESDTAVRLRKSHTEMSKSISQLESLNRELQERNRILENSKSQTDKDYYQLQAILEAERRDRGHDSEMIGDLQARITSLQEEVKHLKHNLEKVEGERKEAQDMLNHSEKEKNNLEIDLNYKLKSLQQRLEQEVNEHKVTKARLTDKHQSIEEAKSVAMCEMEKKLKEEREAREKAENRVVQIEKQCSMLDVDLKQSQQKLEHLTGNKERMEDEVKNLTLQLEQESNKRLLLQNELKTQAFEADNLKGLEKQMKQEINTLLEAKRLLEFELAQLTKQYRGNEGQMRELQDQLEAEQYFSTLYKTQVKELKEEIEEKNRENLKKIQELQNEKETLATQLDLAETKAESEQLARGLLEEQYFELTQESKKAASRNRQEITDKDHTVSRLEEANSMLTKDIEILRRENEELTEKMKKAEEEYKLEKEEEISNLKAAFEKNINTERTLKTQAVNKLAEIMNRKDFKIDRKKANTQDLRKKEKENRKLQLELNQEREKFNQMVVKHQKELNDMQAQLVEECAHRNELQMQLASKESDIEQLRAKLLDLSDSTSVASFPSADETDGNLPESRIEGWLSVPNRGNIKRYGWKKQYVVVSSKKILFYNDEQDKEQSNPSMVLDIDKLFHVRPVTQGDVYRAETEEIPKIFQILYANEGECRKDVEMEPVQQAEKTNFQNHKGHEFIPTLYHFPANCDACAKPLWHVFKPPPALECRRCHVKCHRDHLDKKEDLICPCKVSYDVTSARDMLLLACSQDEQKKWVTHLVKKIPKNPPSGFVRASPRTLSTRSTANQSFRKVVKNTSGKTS
CDK9/CCNT1, sequence (P50750 whole entry, species assumed): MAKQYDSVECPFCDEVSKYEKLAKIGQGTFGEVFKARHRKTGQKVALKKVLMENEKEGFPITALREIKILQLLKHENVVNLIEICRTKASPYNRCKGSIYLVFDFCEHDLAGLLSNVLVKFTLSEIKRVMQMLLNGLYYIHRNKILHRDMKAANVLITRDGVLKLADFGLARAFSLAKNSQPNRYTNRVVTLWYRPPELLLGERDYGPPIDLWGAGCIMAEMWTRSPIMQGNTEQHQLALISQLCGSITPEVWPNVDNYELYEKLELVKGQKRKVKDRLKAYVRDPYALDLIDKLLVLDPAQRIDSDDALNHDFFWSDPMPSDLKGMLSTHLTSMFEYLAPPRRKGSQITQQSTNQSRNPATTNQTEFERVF
CDK9/CCNT1, sequence (O60563 whole entry partner, species assumed): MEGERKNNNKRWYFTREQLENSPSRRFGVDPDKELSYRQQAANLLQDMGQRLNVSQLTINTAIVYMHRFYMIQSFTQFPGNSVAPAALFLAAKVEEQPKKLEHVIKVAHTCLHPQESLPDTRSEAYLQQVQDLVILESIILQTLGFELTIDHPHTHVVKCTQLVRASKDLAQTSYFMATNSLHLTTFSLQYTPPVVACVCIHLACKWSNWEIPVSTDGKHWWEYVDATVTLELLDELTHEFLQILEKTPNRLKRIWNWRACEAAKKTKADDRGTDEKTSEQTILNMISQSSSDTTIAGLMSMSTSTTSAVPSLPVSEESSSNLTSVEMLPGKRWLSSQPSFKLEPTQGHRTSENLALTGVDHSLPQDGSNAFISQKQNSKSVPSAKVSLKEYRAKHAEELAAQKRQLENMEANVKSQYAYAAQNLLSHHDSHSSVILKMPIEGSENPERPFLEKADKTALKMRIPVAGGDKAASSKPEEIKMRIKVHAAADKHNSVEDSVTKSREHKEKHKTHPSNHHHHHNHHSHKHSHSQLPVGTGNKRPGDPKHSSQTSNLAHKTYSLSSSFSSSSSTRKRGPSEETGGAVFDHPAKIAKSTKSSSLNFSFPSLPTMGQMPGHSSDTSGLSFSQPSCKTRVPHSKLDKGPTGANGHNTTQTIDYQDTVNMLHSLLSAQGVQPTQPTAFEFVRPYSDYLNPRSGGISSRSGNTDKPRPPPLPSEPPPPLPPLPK
CDK7/CCNH/MNAT1, sequence (P50613 whole entry, species assumed): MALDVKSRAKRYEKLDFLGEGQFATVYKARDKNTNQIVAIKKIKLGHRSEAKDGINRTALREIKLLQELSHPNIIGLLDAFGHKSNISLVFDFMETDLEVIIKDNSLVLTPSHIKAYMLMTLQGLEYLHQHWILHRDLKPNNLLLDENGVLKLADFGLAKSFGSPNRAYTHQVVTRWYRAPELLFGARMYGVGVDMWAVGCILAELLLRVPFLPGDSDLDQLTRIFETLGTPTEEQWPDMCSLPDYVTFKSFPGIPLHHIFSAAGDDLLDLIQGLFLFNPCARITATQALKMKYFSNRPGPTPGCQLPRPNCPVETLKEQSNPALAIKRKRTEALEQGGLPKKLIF
CDK7/CCNH/MNAT1, sequence (P51946 whole entry partner, species assumed): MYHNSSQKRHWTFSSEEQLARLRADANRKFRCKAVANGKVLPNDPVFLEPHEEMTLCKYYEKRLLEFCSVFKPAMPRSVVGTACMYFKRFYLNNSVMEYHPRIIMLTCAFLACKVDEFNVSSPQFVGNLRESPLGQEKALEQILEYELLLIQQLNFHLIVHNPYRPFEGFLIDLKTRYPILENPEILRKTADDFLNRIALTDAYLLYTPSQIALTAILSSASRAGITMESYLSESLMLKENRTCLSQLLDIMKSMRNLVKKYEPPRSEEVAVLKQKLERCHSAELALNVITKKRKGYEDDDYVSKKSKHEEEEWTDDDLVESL
CDK7/CCNH/MNAT1, sequence (P51948 whole entry partner, species assumed): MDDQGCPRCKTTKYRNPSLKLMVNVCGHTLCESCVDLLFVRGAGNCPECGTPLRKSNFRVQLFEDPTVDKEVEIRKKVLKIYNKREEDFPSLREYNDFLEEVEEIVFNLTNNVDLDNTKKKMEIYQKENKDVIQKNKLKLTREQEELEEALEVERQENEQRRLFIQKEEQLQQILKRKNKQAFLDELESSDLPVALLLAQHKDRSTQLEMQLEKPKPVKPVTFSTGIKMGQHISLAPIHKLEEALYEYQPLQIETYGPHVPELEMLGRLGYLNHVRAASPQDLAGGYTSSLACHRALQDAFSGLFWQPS
CDK1/CCNB1, sequence (P06493 whole entry, species assumed): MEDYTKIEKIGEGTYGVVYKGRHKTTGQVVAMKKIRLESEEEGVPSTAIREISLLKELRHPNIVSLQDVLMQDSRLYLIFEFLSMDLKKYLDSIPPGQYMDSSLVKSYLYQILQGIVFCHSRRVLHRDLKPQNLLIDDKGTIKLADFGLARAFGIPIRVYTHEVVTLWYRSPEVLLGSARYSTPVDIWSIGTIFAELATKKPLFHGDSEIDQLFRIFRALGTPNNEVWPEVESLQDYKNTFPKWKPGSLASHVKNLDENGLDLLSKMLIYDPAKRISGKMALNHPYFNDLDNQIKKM
CDK1/CCNB1, sequence (P14635 whole entry partner, species assumed): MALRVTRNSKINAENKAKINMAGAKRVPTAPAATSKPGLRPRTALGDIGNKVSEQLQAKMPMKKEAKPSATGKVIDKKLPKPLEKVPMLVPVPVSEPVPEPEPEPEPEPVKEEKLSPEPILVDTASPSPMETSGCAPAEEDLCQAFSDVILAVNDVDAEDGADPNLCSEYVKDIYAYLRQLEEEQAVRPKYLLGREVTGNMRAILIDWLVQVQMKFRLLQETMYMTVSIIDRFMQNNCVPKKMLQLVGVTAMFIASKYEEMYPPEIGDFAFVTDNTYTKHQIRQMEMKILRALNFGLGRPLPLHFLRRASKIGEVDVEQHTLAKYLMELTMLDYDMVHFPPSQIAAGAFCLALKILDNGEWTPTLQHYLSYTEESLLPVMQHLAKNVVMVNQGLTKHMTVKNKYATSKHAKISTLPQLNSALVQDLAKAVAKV
GSK3B, sequence (P49841 whole entry, species assumed): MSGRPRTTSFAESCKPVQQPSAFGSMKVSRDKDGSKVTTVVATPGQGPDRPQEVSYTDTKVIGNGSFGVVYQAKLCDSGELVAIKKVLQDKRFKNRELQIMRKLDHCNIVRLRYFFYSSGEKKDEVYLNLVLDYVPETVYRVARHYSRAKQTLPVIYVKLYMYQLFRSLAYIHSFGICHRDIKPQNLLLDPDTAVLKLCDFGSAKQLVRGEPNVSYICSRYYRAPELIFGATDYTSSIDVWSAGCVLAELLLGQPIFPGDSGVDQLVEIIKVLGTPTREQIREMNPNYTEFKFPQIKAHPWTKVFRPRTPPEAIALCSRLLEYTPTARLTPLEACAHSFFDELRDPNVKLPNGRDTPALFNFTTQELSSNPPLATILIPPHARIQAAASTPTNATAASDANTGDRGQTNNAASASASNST

Question: How did the inhibition at 1 µM [1] turn out when CC(C)Oc1cc(F)ccc1Nc1ncnc2cc(C(=O)NCCCN(C)C)n(C)c12 [Example 40, N-[3-(dimethylamino)propyl]-4-{[4-fluoro-2-(propan-2-yloxy)phenyl]amino}-5-methyl-5H-pyrrolo[3,2-d]pyrimidine-6-carboxamide] was run?
Answer: 0%

Question: And the inhibition at 1 µM [2]?
Answer: 0%

Question: What about the inhibition at 1 µM [3] of the same compound?
Answer: 0%

Question: What about the inhibition at 1 µM [4] of the same compound?
Answer: 0%

Question: What about the inhibition at 1 µM [5] of the same compound?
Answer: 0%

Question: And the inhibition at 1 µM [6]?
Answer: 0%

Question: What about the inhibition at 1 µM [7] of the same compound?
Answer: 0%

Question: And the inhibition at 1 µM [8]?
Answer: 0%

Question: What about the inhibition at 1 µM [9] of the same compound?
Answer: 0%

Question: What about the inhibition at 1 µM [10] of the same compound?
Answer: 0%

Question: What about the inhibition at 1 µM [11] of the same compound?
Answer: 5%

Question: And the inhibition at 1 µM [12]?
Answer: 0%

Question: What about the inhibition at 1 µM [13] of the same compound?
Answer: 0%

Question: And the inhibition at 1 µM [14]?
Answer: 2%

Question: And the inhibition at 1 µM [15]?
Answer: 0%

Question: And the inhibition at 1 µM [16]?
Answer: 14%
